Source: patent US12180139B2, “Method for preparing aminoalkanoic acid derivative containing biphenyl group” (AMTIXBIO CO., LTD., priority 2019, dated 2024)
In brackets after ≈: the same amount, converted by molar mass.

How the values were obtained:
A. fumigatus = details: visual reading; expressed as a range value
Description: (§3) An in vitro antifungal susceptibility test was performed in accordance with the US Clinical and Laboratory Standards Institute (CLSI) guidelines to measure the degree of antifungal activity of the compounds synthesized in the Preparation Examples against opportunistic pathogenic fungi. […] The MIC value (μg/ ? ) is expressed as a range value. Specifically, Candida species and Cryptococcus neoformans were incubated in a Sabouraud dextrose agar (SDA) (Sigma-Aldrich) solid medium for 24 and 48 hours, respectively to obtain single colonies. The obtained single colonies were suspended in 0.85% physiological saline to prepare fungal cell suspension (1 to 5×10^6 cells/ ? ). Fungal cells 2000-fold diluted in RPMI1640 broth (Sigma-Aldrich) were seeded on 96-well plates (5×10^2 to 2.5×10^3 cells/ ? , 195 ? /well). Serial two-fold dilutions (128, 64, 32, 16, 8, 4, 2, 1, and 0.5 μg/ ? ) of compounds were prepared by diluting the compounds synthesized according to the above preparation examples. Then, 5 ? from each dilution was added to the well of the 96-well plate containing fungal cell suspension to give a final suspension of 200 ? per well. […] As a positive control, amphotericin B (AMB), which is highly toxic to the human body but is known as a representative antifungal agent, was used.

C. neoformans = details: RPMI1640 broth, 35° C., 72 hours, visual reading; expressed as a range value
E. coli (−) = test: Antibacterial MIC test (CLSI); format: cell-based; details: for MIC E. coli (−): MHB liquid medium, 37° C., 24 hours
Description: (§1) The MIC test was conducted in accordance CLSI guidelines. […] As a positive control, Nofloxacin and Vancomycin were used.

S. aureus enterica (−) = test: Antibacterial MIC test (CLSI); format: cell-based; details: for MIC S. aureus enterica (−): MHB liquid medium, 37° C., 24 hours
Description: as §1

B. subtilis (+) = test: Antibacterial MIC test (CLSI); format: cell-based; details: for MIC B. subtilis (+): MHB liquid medium, 37° C., 24 hours
Description: as §1

P. acnes (+) = test: Antibacterial MIC test (CLSI); format: cell-based; details: for MIC P. acnes (+): MHB liquid medium, 37° C., 24 hours
Description: as §1

B. cereus (+) = test: Antibacterial MIC test (CLSI); format: cell-based; details: for MIC B. cereus (+): MHB liquid medium, 37° C., 24 hours
Description: as §1

M. luteus (+) = test: Antibacterial MIC test (CLSI); format: cell-based; details: for MIC M. luteus (+): MHB liquid medium, 37° C., 24 hours
Description: as §1

L. monocytogenes (+) = test: Antibacterial MIC test (CLSI); format: cell-based; details: for MIC L. monocytogenes (+): MHB liquid medium, 37° C., 24 hours
Description: as §1

C. albicans = details: RPMI1640 broth, 35° C., 48 hours, visual reading; expressed as a range value
Description: as §3

MRSA = test: Antibacterial MIC test (CLSI); format: cell-based, Methicillin-resistant Staphylococcus aureus; details: for MIC MRSA: MHB liquid medium, 37° C., 24 hours
Description: as §1

S. aureus (+) = details: MHB liquid medium, 37° C., 24 hours
Description: (§2) The antibacterial activities against Gram-positive bacteria, Gram-negative bacteria or multi-drug resistant bacteria were evaluated for the compounds of the present invention. The MIC test was conducted in accordance CLSI guidelines. E. coli(−), P. aeruginosa(−), and S. enterica(−) were used as Gram-negative bacteria, B. cereus(+), B. subtilis(+), B. coagulans(+), L. monocytogenes(+), M. luteus(+), P. acnes(+), S. epidermidis(+), and S. aureus(+) were used as Gram-positive bacteria. Methicillin-resistant Staphylococcus aureus (MRSA) was used as multi-drug resistant bacteria. The bacterial cells were incubated until the OD600 of the single colonies reached 0.1. […] Subsequently, bacterial cells were incubated at 37° C. for 24 hours, and then the MICs (μg/ ? ) were determined by visual reading and optical density detection at 600 nm (OD600). As a positive control, Nofloxacin and Vancomycin were used.

S. epidermidis (+) = details: MHB liquid medium, 37° C., 24 hours
Description: as §2

C. glabrata = details: RPMI1640 broth, 35° C., 48 hours, visual reading; expressed as a range value
Description: as §3

B. coagulans (+) = test: Antibacterial MIC test (CLSI); format: cell-based; details: for MIC B. coagulans (+): MHB liquid medium, 37° C., 24 hours
Description: as §1

Row | Compound | MIC (μg/mL) A. fumigatus (A. fumigatus) | MIC (μg/mL) C. neoformans (C. neoformans) | MIC E. coli (−) (E. coli (−)) [µg/mL] | MIC S. aureus enterica (−) (S. aureus enterica (−)) [µg/mL] | MIC B. subtilis (+) (B. subtilis (+)) [µg/mL] | MIC P. acnes (+) (P. acnes (+)) [µg/mL] | MIC B. cereus (+) (B. cereus (+)) [µg/mL] | MIC M. luteus (+) (M. luteus (+)) [µg/mL] | MIC L. monocytogenes (+) (L. monocytogenes (+)) [µg/mL] | MIC (μg/mL) C. albicans (C. albicans) | MIC MRSA (MRSA) [µg/mL] | MIC S. aureus (+) (S. aureus (+)) [µg/mL] | MIC S. epidermidis (+) (S. epidermidis (+)) [µg/mL] | MIC (μg/mL) C. glabrata (C. glabrata) | MIC B. coagulans (+) (B. coagulans (+)) [µg/mL] | other results
1 | CCCCC(N)C(=O)NCCc1ccc(-c2ccc(Cl)c(Cl)c2)cc1.Cl (racemic) [Compound 75, (R)/(S)-2-amino-N-(2-(3′,4′-dichloro-[1,1′-biphenyl]-4-yl)ethyl)hexanamide hydrochloride] | 0.5~4 μg/mL | 0.5~4 μg/mL | 32 | >32 | 8 | 8 | 16 | 8 | 8 | 0.5~4 μg/mL | 8 | 8 | 8 | 0.5~4 μg/mL |  | 
2 | CCCCC(N)C(=O)Nc1ccc(-c2ccc(Cl)c(Cl)c2)cc1.Cl (racemic) [Compound 31, (R)/(S)-2-amino-N-(3′,4′-dichloro-[1,1′-biphenyl]-4-yl)hexanamide hydrochloride] | 0.5~4 μg/mL | 0.5~4 μg/mL | <4 | 8 | <4 | <4 | <4 | <4 | <4 | 0.5~4 μg/mL | <4 | <4 | <4 | 0.5~4 μg/mL | <4 | 
3 | CCCCC(NC)C(=O)Nc1ccc(-c2ccc(Cl)c(Cl)c2)cc1.Cl (racemic) [Compound 35, (R)/(S)-N-(3′,4′-dichloro-[1,1′-biphenyl]-4-yl)-2-(methylamino)hexanamide hydrochloride] | 0.5~4 μg/mL | 0.5~4 μg/mL | <4 | 64 | <4 | <4 | <4 | <4 | >64 | 0.5~4 μg/mL | <4 | 8 | <4 | 0.5~4 μg/mL | <4 | 
4 | CCCC(N)C(=O)Nc1ccc(-c2ccc(Cl)c(Cl)c2)cc1.Cl (racemic) [Compound 30, (R)/(S)-2-amino-N-(3′,4′-dichloro-[1,1′-biphenyl]-4-yl)pentanamide hydrochloride] | 4~16 μg/mL | 2~8 μg/mL | >32 | >32 | 16 | 16 | 32 |  | 16 | 4~16 μg/mL | 16 | 16 | 16 | 4~16 μg/mL | 8 | 
5 | CCCC(NC)C(=O)NCCc1ccc(-c2ccc(Cl)c(Cl)c2)cc1.Cl (racemic) [Compound 84, (R)/(S)-N-(2-(3′,4′-dichloro-[1,1′-biphenyl]-4-yl)ethyl)-2-(methylamino)pentanamide hydrochloride] | 4~1 μg/mL | 2~8 μg/mL | >32 | >32 | 16 | 16 | 32 | 16 | 16 | 4~1 μg/mL | 16 | 16 | 16 | 4~1 μg/mL | 8 | 
6 | CCCCC(NC)C(=O)NCCc1ccc(-c2ccc(Cl)c(Cl)c2)cc1.Cl (racemic) [Compound 85, (R)/(S)-N-(2-(3′,4′-dichloro-[1,1′-biphenyl]-4-yl)ethyl)-2-(methylamino)hexanamide hydrochloride] | 0.5~4 μg/mL | 0.5~4 μg/mL | >32 | >32 | 16 | 16 | 32 | 8 | 16 | 0.5~4 μg/mL | 16 | 16 | 16 | 0.5~4 μg/mL | 4 | 
7 | CCCC(C(=O)NCCc1ccc(-c2ccc(Cl)c(Cl)c2)cc1)N(C)C (racemic) [Compound 92, (R)/(S)-N-(2-(3′,4′-dichloro-[1,1′-biphenyl]-4-yl)ethyl)-2-(dimethylamino)pentanamide] | 8~32 μg/mL | 4~16 μg/mL |  |  |  |  |  |  |  | 8~32 μg/mL |  |  |  | 8~32 μg/mL |  | 
8 | CCCCC(NC)C(=O)NCCc1ccc(-c2ccc(OC(F)(F)F)cc2)cc1.Cl (racemic) [Compound 91, (R)/(S)-2-(methylamino)-N-(2-(4′-(trifluoromethoxy)-[1,1′-biphenyl]-4-yl)ethyl)hexanamide hydrochloride] | 4~16 μg/mL | 2~8 μg/mL | 8 | 16 | 16 | <4 | 16 | <4 | <4 | 4~16 μg/mL | 8 | 8 | <4 | 4~16 μg/mL | <4 | 
9 | CCCC(NC)C(=O)NCCc1ccc(-c2ccc(OC(F)(F)F)cc2)cc1.Cl (racemic) [Compound 90, (R)/(S)-2-(methylamino)-N-(2-(4′-(trifluoromethoxy)-[1,1′-biphenyl]-4-yl)ethyl)pentanamide hydrochloride] | 4~16 μg/mL | 4~16 μg/mL |  |  |  |  |  |  |  | 4~16 μg/mL |  |  |  | 4~16 μg/mL |  | 
10 | C[C@@H]1[C@H](O)[C@@H](C)/C=C/C=C/C=C/C=C/C=C/C=C/C=C/[C@H](O[C@@H]2O[C@H](C)[C@@H](O)[C@H](N)[C@@H]2O)C[C@@H]2O[C@](O)(C[C@@H](O)C[C@@H](O)[C@H](O)CC[C@@H](O)C[C@@H](O)CC(=O)O[C@H]1C)C[C@H](O)[C@H]2C(=O)O [ABM, amphotericin B, reference compound] | 1 µg/mL (≈ 1.08 µM) | 0.25 µg/mL (≈ 0.271 µM) |  |  |  |  |  |  |  | 0.25 µg/mL (≈ 0.271 µM) |  |  |  | 0.5 µg/mL (≈ 0.541 µM) |  | 
11 | CN[C@H](CC(C)C)C(=O)N[C@H]1C(=O)N[C@@H](CC(N)=O)C(=O)N[C@H]2C(=O)N[C@H]3C(=O)N[C@H](C(=O)N[C@H](C(=O)O)c4cc(O)cc(O)c4-c4cc3ccc4O)[C@H](O)c3ccc(c(Cl)c3)Oc3cc2cc(c3O[C@@H]2O[C@H](CO)[C@@H](O)[C@H](O)[C@H]2O[C@H]2C[C@](C)(N)[C@H](O)[C@H](C)O2)Oc2ccc(cc2Cl)[C@H]1O [Vancomycin, reference compound] |  |  |  |  |  |  |  |  |  |  |  |  |  |  |  | MIC (E. coli (−); Escherichia coli, 24 h, read-out: MIC E. coli (−)): 64 µg/mL (≈ 44.2 µM); MIC (S. aureus enterica (−); Staphylococcus aureus, 24 h, read-out: MIC S. aureus enterica (−)): > 64 µg/mL; MIC (B. subtilis (+); Bacillus subtilis, 24 h, read-out: MIC B. subtilis (+)): 0.25 µg/mL (≈ 0.173 µM); MIC (P. acnes (+); Cutibacterium acnes, 24 h, read-out: MIC P. acnes (+)): < 0.125 µg/mL; MIC (B. cereus (+); Bacillus cereus, 24 h, read-out: MIC B. cereus (+)): 0.5 µg/mL (≈ 0.345 µM); MIC (B. coagulans (+); Heyndrickxia coagulans, 24 h, read-out: MIC B. coagulans (+)): 0.25 µg/mL (≈ 0.173 µM); MIC (M. luteus (+); Micrococcus luteus, 24 h, read-out: MIC M. luteus (+)): 0.25 µg/mL (≈ 0.173 µM); MIC (L. monocytogenes (+); Listeria monocytogenes, 24 h, read-out: MIC L. monocytogenes (+)): 0.25 µg/mL (≈ 0.173 µM); MIC (MRSA; Staphylococcus aureus, MRSA, 24 h, read-out: MIC MRSA): 1 µg/mL (≈ 0.69 µM)
12 | CCn1cc(C(=O)O)c(=O)c2cc(F)c(N3CCNCC3)cc21 [Nofloxacin, reference compound] |  |  | <0.125 | <0.125 | <0.125 | <0.125 | 1 (≈ 3.13 µM) | <0.125 | <0.125 |  | 0.5 (≈ 1.57 µM) |  |  |  | <0.125 | 
